In ChEMBL document CHEMBL4261593, “Synthesis and antibacterial activity of novel 3-O-arylalkylcarbamoyl-3-O-descladinosyl-9-O-(2-chlorobenzyl)oxime clarithromycin derivatives” (2018):
Converted amounts (≈) assume the structure as drawn.

Assays:
Assay type in all cases: functional
Streptococcus pyogenes [1] = test: Antibacterial activity against erythromycin-susceptible Streptococcus pyogenes 1 after 24 hrs by broth dilution assay; settings: Streptococcus pyogenes, 1, 24 h
Staphylococcus aureus [2] = test: Antibacterial activity against erythromycin-susceptible Staphylococcus aureus ATCC 25923 after 24 hrs by broth dilution assay; settings: ATCC 25923, 24 h
Escherichia coli = test: Antibacterial activity against penicillin-susceptible Escherichia coli ATCC 25922 after 24 hrs by broth dilution assay; settings: ATCC 25922, 24 h
Pseudomonas aeruginosa = test: Antibacterial activity against penicillin-susceptible Pseudomonas aeruginosa ATCC 27853 after 24 hrs by broth dilution assay; settings: ATCC 27853, 24 h
Bacillus subtilis = test: Antibacterial activity against penicillin-susceptible Bacillus subtilis ATCC 9372 after 24 hrs by broth dilution assay; settings: ATCC 9372, 24 h
Staphylococcus aureus [3] = test: Antibacterial activity against […] Staphylococcus aureus ATCC 29213 after 24 hrs by broth dilution assay; settings: ATCC 29213, 24 h
Staphylococcus aureus [4] = test: Antibacterial activity against penicillin-resistant Staphylococcus aureus ATCC 31007 after 24 hrs by broth dilution assay; settings: ATCC 31007, 24 h
Streptococcus pyogenes [5] = test: Antibacterial activity against erythromycin-resistant Streptococcus pyogenes 2 after 24 hrs by broth dilution assay; settings: Streptococcus pyogenes, 2, 24 h
Streptococcus pneumoniae [6] = test: Antibacterial activity against erythromycin-resistant Streptococcus pneumoniae A22072 expressing mefA gene after 24 hrs by broth dilution assay; settings: A22072, 24 h
Streptococcus pneumoniae [7] = test: Antibacterial activity against erythromycin-resistant Streptococcus pneumoniae B1 expressing ermB gene after 24 hrs by broth dilution assay; settings: B1, 24 h
Streptococcus pneumoniae [8] = test: Antibacterial activity against erythromycin-resistant Streptococcus pneumoniae AB11 expressing ermB and mefA genes after 24 hrs by broth dilution assay; settings: AB11, 24 h

Row | Structure (SMILES) | MIC (Streptococcus pyogenes [1]) | MIC (Staphylococcus aureus [2]) | MIC (Escherichia coli) | MIC (Pseudomonas aeruginosa) | MIC (Bacillus subtilis) | MIC (Staphylococcus aureus [3]) | MIC (Staphylococcus aureus [4]) | MIC (Streptococcus pyogenes [5]) | MIC (Streptococcus pneumoniae [6]) | MIC (Streptococcus pneumoniae [7]) | MIC (Streptococcus pneumoniae [8])
1 | CC[C@H]1OC(=O)[C@H](C)[C@@H](OC(=O)NCc2ccc(C)cc2)[C@H](C)[C@@H](O[C@@H]2O[C@H](C)C[C@H](N(C)C)[C@H]2O)[C@](C)(OC)C[C@@H](C)/C(=N/OCc2ccccc2Cl)[C@H](C)[C@@H](O)[C@]1(C)O | 2 µg/mL (≈ 2.28 µM) | 8 µg/mL (≈ 9.13 µM) | 128 µg/mL (≈ 146 µM) | 128 µg/mL (≈ 146 µM) | 2 µg/mL (≈ 2.28 µM) | 128 µg/mL (≈ 146 µM) | 4 µg/mL (≈ 4.56 µM) | 16 µg/mL (≈ 18.3 µM) | 1 µg/mL (≈ 1.14 µM) | 128 µg/mL (≈ 146 µM) | 128 µg/mL (≈ 146 µM)
2 | CC[C@H]1OC(=O)[C@H](C)[C@@H](OC(=O)NCCc2ccc(F)cc2)[C@H](C)[C@@H](O[C@@H]2O[C@H](C)C[C@H](N(C)C)[C@H]2O)[C@](C)(OC)C[C@@H](C)/C(=N/OCc2ccccc2Cl)[C@H](C)[C@@H](O)[C@]1(C)O | 2 µg/mL (≈ 2.24 µM) | 4 µg/mL (≈ 4.47 µM) | 128 µg/mL (≈ 143 µM) | 128 µg/mL (≈ 143 µM) | 2 µg/mL (≈ 2.24 µM) | 128 µg/mL (≈ 143 µM) | 4 µg/mL (≈ 4.47 µM) | 8 µg/mL (≈ 8.94 µM) | 1 µg/mL (≈ 1.12 µM) | 128 µg/mL (≈ 143 µM) | 128 µg/mL (≈ 143 µM)
3 | CC[C@H]1OC(=O)[C@H](C)[C@@H](O[C@H]2C[C@@](C)(OC)[C@@H](O)[C@H](C)O2)[C@H](C)[C@@H](O[C@@H]2O[C@H](C)C[C@H](N(C)C)[C@H]2O)[C@](C)(O)C[C@@H](C)CN(C)[C@H](C)[C@@H](O)[C@]1(C)O [AZITHROMYCIN] | 0.03 µg/mL (≈ 0.0401 µM) | 0.25 µg/mL (≈ 0.334 µM) | 8 µg/mL (≈ 10.7 µM) | 16 µg/mL (≈ 21.4 µM) | 0.5 µg/mL (≈ 0.668 µM) | 8 µg/mL (≈ 10.7 µM) | 256 µg/mL (≈ 342 µM) | 256 µg/mL (≈ 342 µM) | 4 µg/mL (≈ 5.34 µM) | 128 µg/mL (≈ 171 µM) | 128 µg/mL (≈ 171 µM)
4 | CC[C@H]1OC(=O)[C@H](C)[C@@H](OC(=O)NCCc2ccccc2)[C@H](C)[C@@H](O[C@@H]2O[C@H](C)C[C@H](N(C)C)[C@H]2O)[C@](C)(OC)C[C@@H](C)/C(=N/OCc2ccccc2Cl)[C@H](C)[C@@H](O)[C@]1(C)O | 8 µg/mL (≈ 9.13 µM) | 16 µg/mL (≈ 18.3 µM) | 128 µg/mL (≈ 146 µM) | 128 µg/mL (≈ 146 µM) | 8 µg/mL (≈ 9.13 µM) | 128 µg/mL (≈ 146 µM) | 8 µg/mL (≈ 9.13 µM) | 16 µg/mL (≈ 18.3 µM) | 2 µg/mL (≈ 2.28 µM) | 128 µg/mL (≈ 146 µM) | 128 µg/mL (≈ 146 µM)
5 | CC[C@H]1OC(=O)[C@H](C)[C@@H](OC(=O)NC2CCCCC2)[C@H](C)[C@@H](O[C@@H]2O[C@H](C)C[C@H](N(C)C)[C@H]2O)[C@](C)(OC)C[C@@H](C)/C(=N/OCc2ccccc2Cl)[C@H](C)[C@@H](O)[C@]1(C)O | 2 µg/mL (≈ 2.34 µM) | 16 µg/mL (≈ 18.7 µM) | 128 µg/mL (≈ 150 µM) | 128 µg/mL (≈ 150 µM) | 4 µg/mL (≈ 4.68 µM) | 128 µg/mL (≈ 150 µM) | 8 µg/mL (≈ 9.36 µM) | 16 µg/mL (≈ 18.7 µM) | 1 µg/mL (≈ 1.17 µM) | 128 µg/mL (≈ 150 µM) | 128 µg/mL (≈ 150 µM)
6 | CC[C@H]1OC(=O)[C@H](C)[C@@H](OC(=O)NCc2ccc(F)cc2)[C@H](C)[C@@H](O[C@@H]2O[C@H](C)C[C@H](N(C)C)[C@H]2O)[C@](C)(OC)C[C@@H](C)/C(=N/OCc2ccccc2Cl)[C@H](C)[C@@H](O)[C@]1(C)O | 2 µg/mL (≈ 2.27 µM) | 4 µg/mL (≈ 4.54 µM) | 128 µg/mL (≈ 145 µM) | 128 µg/mL (≈ 145 µM) | 2 µg/mL (≈ 2.27 µM) | 128 µg/mL (≈ 145 µM) | 4 µg/mL (≈ 4.54 µM) | 8 µg/mL (≈ 9.09 µM) | 1 µg/mL (≈ 1.14 µM) | 128 µg/mL (≈ 145 µM) | 128 µg/mL (≈ 145 µM)
7 | CC[C@H]1OC(=O)[C@H](C)[C@@H](OC(=O)NC2CCCC2)[C@H](C)[C@@H](O[C@@H]2O[C@H](C)C[C@H](N(C)C)[C@H]2O)[C@](C)(OC)C[C@@H](C)/C(=N/OCc2ccccc2Cl)[C@H](C)[C@@H](O)[C@]1(C)O | 2 µg/mL (≈ 2.38 µM) | 16 µg/mL (≈ 19 µM) | 128 µg/mL (≈ 152 µM) | 128 µg/mL (≈ 152 µM) | 4 µg/mL (≈ 4.76 µM) | 128 µg/mL (≈ 152 µM) | 8 µg/mL (≈ 9.52 µM) | 16 µg/mL (≈ 19 µM) | 0.5 µg/mL (≈ 0.595 µM) | 128 µg/mL (≈ 152 µM) | 128 µg/mL (≈ 152 µM)
